Experimental data from patent publication US20240252488A1 (KOREA RESEARCH INSTITUTE OF CHEMICAL TECHNOLOGY, priority 2020, published 2024).

Key:
MLKL [1] = biological target: T1, MLKL (Homo sapiens, UniProt Q8NB16); experiment: MLKL degradation assay in HepG2 cell line (western blot); type: cell-based; set-up: endogenous in cells; host or cells: HepG2 or HaCaT; conditions: cell line not given; for Degradation assay (Degradation %) 1 μM: compound 1 μM; for Degradation assay (Degradation %) 10 μM: compound 10 μM
T1 sequence (Q8NB16 1-471): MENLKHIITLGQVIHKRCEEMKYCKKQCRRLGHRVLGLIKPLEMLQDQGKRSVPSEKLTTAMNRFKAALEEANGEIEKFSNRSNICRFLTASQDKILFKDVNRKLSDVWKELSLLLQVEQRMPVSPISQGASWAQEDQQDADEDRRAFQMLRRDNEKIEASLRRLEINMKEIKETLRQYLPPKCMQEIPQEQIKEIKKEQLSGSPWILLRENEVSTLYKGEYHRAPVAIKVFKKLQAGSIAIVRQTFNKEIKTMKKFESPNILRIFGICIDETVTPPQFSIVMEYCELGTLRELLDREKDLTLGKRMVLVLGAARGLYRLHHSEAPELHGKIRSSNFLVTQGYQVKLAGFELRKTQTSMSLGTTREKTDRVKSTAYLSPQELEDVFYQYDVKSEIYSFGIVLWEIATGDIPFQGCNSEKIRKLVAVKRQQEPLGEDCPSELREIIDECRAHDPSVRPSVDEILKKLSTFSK
How it was run: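 Chemiluminescent western blot signal reports remaining MLKL protein in HepG2 cells after 20-24 h treatment with compound at a final 1 or 10 μM. Equal protein (10-15 μg, BCA) is loaded per lane.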

FADD−/− Jurkat cells = experiment: Necroptosis inhibition assay, TNF-α-induced necroptosis (CellTiter-Glo 2.0); type: cell-based, human; conditions: TNF-α 15 ng/mL; for Necroptosis inhibition assay (Rescue %) 1 μM: compound 1 μM; for Necroptosis inhibition assay (Rescue %) 10 μM: compound 10 μM
How it was run: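 Compound is added to cells at final concentrations of 0.1, 1 and 10 μM and left 30 minutes at room temperature. Necroptosis is induced with 15 ng/mL TNF-α, culture continues 20 to 24 hours at 37° C, and ATP-based luminescence reports viability.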

MLKL [2] = biological target: T1, MLKL; experiment: Measurement of binding affinity with MLKL receptor (competitive binding assay, Kd); set-up: made in house; host or cells: HEK 293 cell line (T7 phage in E. coli BL21-derived host is also described)
How it was run: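 Kd comes from a bead-based competition format: compound-dependent loss of DNA-tagged, HEK 293-expressed MLKL capture, measured as eluate kinase by qPCR. Final DMSO is 0.9%.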

Compound | Degradation assay (Degradation %) 1 μM (MLKL [1]) [%] | Degradation assay (Degradation %) 10 μM (MLKL [1]) [%] | Kd (MLKL [2]) [nM] | Necroptosis inhibition assay (Rescue %) 1 μM (FADD−/− Jurkat cells; FADD−/− Jurkat cells) [%] | Necroptosis inhibition assay (Rescue %) 10 μM (FADD−/− Jurkat cells; FADD−/− Jurkat cells) [%] | Necroptosis inhibition assay (Rescue %) 1 μM (FADD−/− Jurkat cells) [%] | Necroptosis inhibition assay (Rescue %) 10 μM (FADD−/− Jurkat cells) [%]
Nc1ncc(-c2cnn(C3CCN(C(=O)CC4CCN(C(=O)CC5CCN(c6ccc7c(c6)C(=O)N(C6CCC(=O)NC6=O)C7=O)CC5)CC4)CC3)c2)nc1C(=O)O[C@@H](C(=O)Nc1ccc(F)cc1)c1ccccc1 (stereo partly drawn) [TDH-402, (R)-2-((4-fluorophenyl)amino)-2-oxo-1-phenylethyl 3-amino-6-(1-(1-(2-(1-(2-(1-(2-(2,6-dioxopiperidin-3-yl)-1,3-dioxoisoindolin-5-yl)piperidin-4-yl)acetyl)piperidin-4-yl)acetyl)piperidin-4-yl)-1H-pyrazol-4-yl)pyrazine-2-carboxylate] | 65.36 | 48.34 | 7.7 | 23.40 | 19.16 | – | –
Nc1ncc(-c2cnn(C3CCN(CCCN4CC5CC4CN5C(=O)COc4ccc5c(c4)C(=O)N(C4CCC(=O)NC4=O)C5=O)CC3)c2)nc1C(=O)O[C@@H](C(=O)Nc1ccc(F)cc1)c1ccccc1 (stereo partly drawn) [TDH-453, (R)-2-((4-fluorophenyl)amino)-2-oxo-1-phenylethyl 3-amino-6-(1-(1-(3-(5-(2-((2-(2,6-dioxopiperidin-3-yl)-1,3-dioxoisoindolin-5-yl)oxy)acetyl)-2,5-diazabicyclo[2.2.1]heptan-2-yl)propyl)piperidin-4-yl)-1H-pyrazol-4-yl)pyrazine-2-carboxylate] | 74.72 | 92.96 | 0.64 | 51.32 | 49.41 | – | –
Nc1ncc(-c2cnn(C3CCN(C(=O)CCC4CCN(C(=O)CC5CCN(c6ccc7c(c6)C(=O)N(C6CCC(=O)NC6=O)C7=O)CC5)CC4)CC3)c2)nc1C(=O)O[C@@H](C(=O)Nc1ccc(F)cc1)c1ccccc1 (stereo partly drawn) [TDH-430, (R)-2-((4-fluorophenyl)amino)-2-oxo-1-phenylethyl 3-amino-6-(1-(1-(3-(1-(2-(1-(2-(2,6-dioxopiperidin-3-yl)-1,3-dioxoisoindolin-5-yl)piperidin-4-yl)acetyl)piperidin-4-yl)propanoyl)piperidin-4-yl)-1H-pyrazol-4-yl)pyrazine-2-carboxylate] | 65.96 | 36.66 | 2.2 | 15.88 | 14.13 | – | –
Nc1ncc(-c2cnn(C3CCN(CCCCCCCCCCNc4ccc5nnn(C6CCC(=O)NC6=O)c(=O)c5c4)CC3)c2)nc1C(=O)O[C@@H](C(=O)Nc1ccc(F)cc1)c1ccccc1 (stereo partly drawn) [TDH-179, (R)-2-((4-fluorophenyl)amino)-2-oxo-1-phenylethyl 3-amino-6-(1-(1-(10-((3-(2,6-dioxopiperidin-3-yl)-4-oxo-3,4-dihydrobenzo[d][1,2,3]triazin-6-yl)amino)decyl)piperidin-4-yl)-1H-pyrazol-4-yl)pyrazine-2-carboxylate] | 78.61 | 61.56 | 31 | – | – | 23.48 | 14.8
Nc1ncc(-c2cnn(C3CCN(CCC4CCN(C(=O)c5cccc(C(=O)NC6CCC(=O)NC6=O)c5)CC4)CC3)c2)nc1C(=O)O[C@@H](C(=O)Nc1ccc(F)cc1)c1ccccc1 (stereo partly drawn) [TDH-543, (R)-2-((4-fluorophenyl)amino)-2-oxo-1-phenylethyl 3-amino-6-(1-(1-(2-(1-(3-((2,6-dioxopiperidin-3-yl)carbamoyl)benzoyl)piperidin-4-yl)ethyl)piperidin-4-yl)-1H-pyrazol-4-yl)pyrazine-2-carboxylate] | 76.24 | 80.46 | 0.23 | 37.86 | 26.19 | – | –

Continued by falling Kd (MLKL [2]), values first:

Degradation assay (Degradation %) 1 μM (MLKL [1]) [%] | Degradation assay (Degradation %) 10 μM (MLKL [1]) [%] | Kd (MLKL [2]) [nM] | Compound | Necroptosis inhibition assay (Rescue %) 1 μM (FADD−/− Jurkat cells; FADD−/− Jurkat cells) [%] | Necroptosis inhibition assay (Rescue %) 10 μM (FADD−/− Jurkat cells; FADD−/− Jurkat cells) [%] | Necroptosis inhibition assay (Rescue %) 1 μM (FADD−/− Jurkat cells) [%] | Necroptosis inhibition assay (Rescue %) 10 μM (FADD−/− Jurkat cells) [%]
66.97 | 53.7 | 43 | Nc1ncc(-c2cnn(C3CCN(CC4CCN(c5ccc6c(c5)C(=O)N(C5CCC(=O)NC5=O)C6=O)CC4)CC3)c2)nc1C(=O)O[C@@H](C(=O)Nc1ccc(F)cc1)c1ccccc1 (stereo partly drawn) [TDH-150, (R)-2-((4-fluorophenyl)amino)-2-oxo-1-phenylethyl 3-amino-6-(1-(1-((1-(2-(2,6-dioxopiperidin-3-yl)-1,3-dioxoisoindolin-5-yl)piperidin-4-yl)methyl)piperidin-4-yl)-1H-pyrazol-4-yl)pyrazine-2-carboxylate] | – | – | 53.91 | 39.57
– | 29.21 | 18 | Nc1ncc(-c2cnn(C3CCN(CCCCCCCCCCNC(=O)C4CN(c5ccc6c(c5)C(=O)N(C5CCC(=O)NC5=O)C6=O)C4)CC3)c2)nc1C(=O)O[C@@H](C(=O)Nc1ccc(F)cc1)c1ccccc1 (stereo partly drawn) [TDH-159, (R)-2-((4-fluorophenyl)amino)-2-oxo-1-phenylethyl 3-amino-6-(1-(1-(10-(1-(2-(2,6-dioxopiperidin-3-yl)-1,3-dioxoisoindolin-5-yl)azetidine-3-carboxamido)decyl)piperidin-4-yl)-1H-pyrazol-4-yl)pyrazine-2-carboxylate] | – | – | 33.57 | 34.1
91.95 | 89.12 | 4.1 | Nc1ncc(-c2cnn(C3CCN(C(=O)CCC4CCN(C(=O)CNc5ccc6c(c5)C(=O)N(C5CCC(=O)NC5=O)C6=O)CC4)CC3)c2)nc1C(=O)O[C@@H](C(=O)Nc1ccc(F)cc1)c1ccccc1 (stereo partly drawn) [TDH-422, (R)-2-((4-fluorophenyl)amino)-2-oxo-1-phenylethyl 3-amino-6-(1-(1-(3-(1-((2-(2,6-dioxopiperidin-3-yl)-1,3-dioxoisoindolin-5-yl)glycyl)piperidin-4-yl)propanoyl)piperidin-4-yl)-1H-pyrazol-4-yl)pyrazine-2-carboxylate] | 50.21 | 40.34 | – | –
54.33 | 68.31 | 0.95 | Nc1ncc(-c2cnn(C3CCN(CCCN4CCN(CC5CCN(c6ccc7c(c6)C(=O)N(C6CCC(=O)NC6=O)C7=O)CC5)CC4)CC3)c2)nc1C(=O)O[C@@H](C(=O)Nc1ccc(F)cc1)c1ccccc1 (stereo partly drawn) [TDH-474, (R)-2-((4-fluorophenyl)amino)-2-oxo-1-phenylethyl 3-amino-6-(1-(1-(3-(4-((1-(2-(2,6-dioxopiperidin-3-yl)-1,3-dioxoisoindolin-5-yl)piperidin-4-yl)methyl)piperazin-1-yl)propyl)piperidin-4-yl)-1H-pyrazol-4-yl)pyrazine-2-carboxylate] | 25.61 | 5.98 | – | –
77.02 | 44.73 | 0.57 | Nc1ncc(-c2cnn(C3CCN(C(=O)C4CCN(C(=O)CNc5ccc6nnn(C7CCC(=O)NC7=O)c(=O)c6c5)CC4)CC3)c2)nc1C(=O)O[C@@H](C(=O)Nc1ccc(F)cc1)c1ccccc1 (stereo partly drawn) [TDH-408, (R)-2-((4-fluorophenyl)amino)-2-oxo-1-phenylethyl 3-amino-6-(1-(1-(1-((3-(2,6-dioxopiperidin-3-yl)-4-oxo-3,4-dihydrobenzo[d][1,2,3]triazin-6-yl)glycyl)piperidine-4-carbonyl)piperidin-4-yl)-1H-pyrazol-4-yl)pyrazine-2-carboxylate] | 26.68 | 19.89 | – | –
